The subject of experiment [1] is CHIP. The note with it: cited from earlier work. The text has this: Moreover, the appearance of pS416 and tauC3 are coincident in AD patient samples (see Fig. 5), supporting a putative role of these PTMs in tau proteostasis. Based on these collective findings and in concert with observations from the literature, we propose a model to explain the hierarchy of these tau PTMs (Fig. 6D). In this speculative model, FL tau can either be phosphorylated by MARK2 or CaMKII ...

In experiment [2] the target is CHIP. The experiment can be described thus: CHIP-tau binding ELISA (tau proteoforms on immobilized CHIP). For orientation: ELISA stands for enzyme-linked immunosorbent assay.
For experiment [3], the target named is T1, CHIP (C-terminus of Hsc70 interacting protein; STUB1), recombinant human, full-length (human, UniProt Q9UNE7 1-303).
T1 construct: CHIP (STUB1), human, E3 ubiquitin ligase; Used in ELISA, DSF and FP; the FP legends speak of the CHIP TPR domain, the FP methods only of CHIP; also called WT CHIP; source: E. coli BL21DE3, purified (Ni-NTA, TEV cleavage, SEC); not shown: His6, N-terminal, cleaved
T1 sequence (looked up): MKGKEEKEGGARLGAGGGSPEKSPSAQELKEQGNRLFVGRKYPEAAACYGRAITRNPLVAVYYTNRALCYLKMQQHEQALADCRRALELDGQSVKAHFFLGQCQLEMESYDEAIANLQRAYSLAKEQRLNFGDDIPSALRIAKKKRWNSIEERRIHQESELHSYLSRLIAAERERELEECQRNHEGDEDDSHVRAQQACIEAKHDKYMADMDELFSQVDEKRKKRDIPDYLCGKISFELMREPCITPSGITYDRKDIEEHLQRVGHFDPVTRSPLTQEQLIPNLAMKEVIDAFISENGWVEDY
The experiment can be described thus: fluorescence polarisation; competition: CHIP 1.58 µM + fluorescent tracer 20 nM, peptide competitor in three-fold dilutions, 25 mM HEPES pH 7.4, 50 mM KCl, 0.01% Triton X-100, DMSO; Ki calculated from IC50. Particulars: both partners purified.

In another experiment the target is T2, CHIP D134A (human, UniProt Q9UNE7 1-303, D134A).
T2 construct: CHIP (STUB1) with Asp134 mutated to alanine; also called D134A CHIP
T2 sequence (looked up): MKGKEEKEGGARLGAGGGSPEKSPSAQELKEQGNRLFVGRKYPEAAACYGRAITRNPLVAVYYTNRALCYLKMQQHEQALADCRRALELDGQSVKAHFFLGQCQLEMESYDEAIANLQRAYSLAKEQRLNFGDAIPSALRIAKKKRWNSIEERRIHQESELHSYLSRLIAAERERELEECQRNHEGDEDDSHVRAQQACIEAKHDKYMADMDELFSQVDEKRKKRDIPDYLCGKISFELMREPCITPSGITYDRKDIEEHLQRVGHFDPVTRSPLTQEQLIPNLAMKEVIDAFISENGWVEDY
In words: differential scanning fluorimetry; 5 µM CHIP, 5x Sypro Orange, varying concentrations of peptide in 25 mM HEPES pH 7.4, 50 mM KCl, 1 mM TCEP, 0.2% CHAPS, 1% DMSO; apparent melting temperature (Tmapp) of CHIP. The note with it: both partners purified. A general note: DSF heats the sample and reads unfolding from a dye or from intrinsic fluorescence.

For a further experiment, the target named is T3, CHIP F131A (human, UniProt Q9UNE7 1-303, F131A).
T3 construct: CHIP (STUB1) with Phe131 mutated to alanine
T3 sequence (looked up): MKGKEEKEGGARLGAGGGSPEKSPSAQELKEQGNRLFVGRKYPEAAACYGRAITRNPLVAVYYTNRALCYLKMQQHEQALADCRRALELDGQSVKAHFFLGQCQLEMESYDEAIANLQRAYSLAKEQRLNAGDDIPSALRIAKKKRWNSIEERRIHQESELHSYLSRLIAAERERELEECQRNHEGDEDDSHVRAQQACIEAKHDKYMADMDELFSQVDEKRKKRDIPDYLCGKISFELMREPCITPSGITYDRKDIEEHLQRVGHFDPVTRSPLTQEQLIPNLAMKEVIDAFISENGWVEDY
Described as above. The note with it: both partners purified.

Where two headings read alike, the source gives them in different places.

Results on two molecules are retold here after publication PMC11393453, “Phosphorylation of tau at a single residue inhibits binding to the E3 ubiquitin ligase, CHIP” (Nature Communications, 2024).

Turning to “p.tau: full length phosphorylated tau produced in Sf9 insect cells”, the “fold better binding of CHIP than to unmodified FL tau” value in the experiment on CHIP [1] is recorded as 10 fold. In addition, the Kd on CHIP [2] (Fig 1C,D, tau proteoform binding to immobilized CHIP (1 µM coated), 3 h RT, technical triplicate, ± SD) was around 500 nM; on CHIP [2] (Fig 1D, replicate 1) it was 433 nM; on CHIP [2] (Fig 1D, replicate 2), 464 nM; at CHIP [2] (Fig 1D, replicate 3) it was 471 nM; at CHIP [2] (read-out: transformed Kd, Fig 1D, replicate 1), 433 nM; at CHIP [2] (read-out: transformed Kd, Fig 1D, replicate 2) it was 464 nM. Moreover, the equilibrium dissociation constant (Kd) at CHIP [2] (read-out: transformed Kd, Fig 1D, replicate 3) came out at 471 nM.

B1: tauC3 S416E phosphomimetic 10-mer peptide Ac-SSTGEIDMVD-OH (peptide)
peptide: Ac-SSTGEIDMVD-OH
notes: C-terminus of tauC3 with S416 replaced by glutamic acid; numbers count on: the 2N4R-tau splice isoform; also called tauC3 S416E peptide; pS416 phosphomimetic; source: synthetic peptide
For B1, the Ki in experiment [3] is 2410 nM. In addition, the binding result with CHIP D134A and in the experiment with CHIP F131A was “binds” in each case.

The term Kd denotes the equilibrium constant for the complex coming apart. What is called Ki is the equilibrium dissociation constant of an inhibitor or competing ligand from its target.
